Assay results from patent US20110269790A1, “NOVEL THIENOPYRIDINES AS PHARMACOLOGICALLY ACTIVE AGENTS” (priority 2009, published 2011).

The compounds below were run on IL-1β (assay: IL-1β in rat paw tissue and serum, FCA model (ELISA)). Details: paw tissue, termination day (21st day), BN compounds 100 mg/kg, indomethacin 2.5 mg/kg.
Assay type: in vivo
Design: % Inhibition (IL-1 Beta) / Percentage of Inhibition (IL-1 Beta): concentration or dose not given beside the values
Method: (§1) Group I—Normal Control; Group II—Arthritic control; Group III—Arthritic rats administered with Synthetic compound BN-4; Group IV—arthritic rats administered with compound BN-14; Group V—arthritic rats administered with BN-16; Group VI—arthritic rats administered with standard drug indomethacin. Administration of test compounds and indomethacin started on the same day of adjuvant injection at the dose of 100 and 2.5 mg/kg respectively. The test and indomethacin doses continued up to 21 days in FCA induced model and 24 days in collagen induced model. During the study period the paw volumes were measured on 5th, 12th, 18th and 21 st days and the weight of the animals was also recorded at different time intervals. At each time point the percentage of inhibition of paw volume was calculated with reference to mean paw volume of control group In FCA model, animals were sacrificed on 21st day by cervical dislocation. Before sacrificing the animals, blood was collected and used for estimation of total leukocyte count, TNF-α and IL-1β.
(§2) In FCA induced study paw tissues were collected on termination day and estimated TNF-α and IL-1β levels for all the groups by ELISA method.
On termination day blood samples were collected and serum was used for the estimation of Both TNF-α and IL-1β levels in FCA and Collagen induced studies. Both the parameters were determined using ELISA kits. TNF-α could not be determined as their expression is very less in serum samples of the rats in the two models studied, where as IL-1β expression in serum was good. Daily treatment of synthetic compounds by oral administration was effective in reducing the serum IL-1β levels (P<0.01) when compared with arthritic control group.

SMILES	IL-1 Beta concentration
Nc1c2c(nc3sc4c(c13)CCC4)CCCCC2 [BN-16, 1,2,3,6,7,8,9,10-Octahydrocyclohepta[b]cyclopenta[4,5]thieno[3,2-e]pyridine-11-amine]	68.87 ± 21.1 ng/gm of tissue
COc1ccc2c(c1)c(CC(=O)O)c(C)n2C(=O)c1ccc(Cl)cc1 [Indomethacin, reference compound]	81.02 ± 17.98 ng/gm of tissue

Same assay, conditions: paw tissue, termination day, FCA model

SMILES	% Inhibition (IL-1 Beta)
Nc1c2c(nc3sc4c(c13)CCC4)CCCCC2 [BN-16, 1,2,3,6,7,8,9,10-Octahydrocyclohepta[b]cyclopenta[4,5]thieno[3,2-e]pyridine-11-amine]	40.51 ± 9.56%
COc1ccc2c(c1)c(CC(=O)O)c(C)n2C(=O)c1ccc(Cl)cc1 [Indomethacin, reference compound]	40.42 ± 8.73%

Same assay, conditions: rat serum, termination day, FCA induced arthritis

SMILES	IL-1 Beta concentration	Percentage of Inhibition (IL-1 Beta)
Nc1c2c(nc3sc4c(c13)CCC4)CCCCC2 [BN-16, 1,2,3,6,7,8,9,10-Octahydrocyclohepta[b]cyclopenta[4,5]thieno[3,2-e]pyridine-11-amine]	17.0 ± 4.50 Pg/ml of tissue	32.48 ± 6.22%
COc1ccc2c(c1)c(CC(=O)O)c(C)n2C(=O)c1ccc(Cl)cc1 [Indomethacin, reference compound]	46.0 ± 7.91 Pg/ml of tissue	20.04 ± 5.33%

Each compound was assayed on Wistar rats (assay: Freund's complete adjuvant (FCA) induced arthritis). Details: BN compounds 100 mg/kg, indomethacin 2.5 mg/kg daily.
Assay type: in vivo, rat
Method: Induction of Arthritis: Arthritis was induced by injecting Freund's complete adjuvant (FCA. Required quantity of FCA was weighed and suspension made with paraffin oil (DIFCO Laboratories) and administered at dose of 0.5 mg/rat in subplantar region of the right hind paw. After 7 days, a booster injection was given to all animals to hind paws.
Experimental Design Animals were divided into 6 groups of 6 rats each and were designated as:
as §1
Clinical Assessment of Adjuvant arthritis: Rats were examined for visual appearance of arthritis and the lesion of erythema and inflammation of periarticular tissues on 14th day, 18th day and on 21st day. Arthritis scoring scale as follows:
2=Mild swelling and erythema of the limb 3=Gross swelling and erythema of the limb 4=Gross deformity and inability to use the limb
The arthritis score of each rat was the sum of the scores of both hind limbs and maximum score was being 8 for each rat.

SMILES	% Of inhibition, 5th Day	% Of inhibition, 12th Day	% Of inhibition, 18th Day
Nc1c2c(nc3sc4c(c13)CCC4)CCCCC2 [BN-16, 1,2,3,6,7,8,9,10-Octahydrocyclohepta[b]cyclopenta[4,5]thieno[3,2-e]pyridine-11-amine]	23.95 ± 4.49 %	39.11 ± 1.68 %	37.53 ± 09.04 %
COc1ccc2c(c1)c(CC(=O)O)c(C)n2C(=O)c1ccc(Cl)cc1 [Indomethacin, reference compound]	37.25 ± 2.36 %	45.43 ± 3.56 %	45.80 ± 6.09%

Same assay, conditions: BN compounds 100 mg/kg, indomethacin 2.5 mg/kg daily; FCA study

SMILES	Body weight index, 21st DAY
Nc1c2c(nc3sc4c(c13)CCC4)CCCCC2 [BN-16, 1,2,3,6,7,8,9,10-Octahydrocyclohepta[b]cyclopenta[4,5]thieno[3,2-e]pyridine-11-amine]	206.38 ± 4.76
COc1ccc2c(c1)c(CC(=O)O)c(C)n2C(=O)c1ccc(Cl)cc1 [Indomethacin, reference compound]	182.68 ± 4.91

Same assay, conditions: BN compounds 100 mg/kg, indomethacin 2.5 mg/kg daily; in mL (unit assumed)

SMILES	Paw volume, 5th Day	Paw volume, 12th Day	Paw volume, 18th Day	Paw volume, 21st Day
Nc1c2c(nc3sc4c(c13)CCC4)CCCCC2 [BN-16, 1,2,3,6,7,8,9,10-Octahydrocyclohepta[b]cyclopenta[4,5]thieno[3,2-e]pyridine-11-amine]	1.81 ± 0.11	1.51 ± 0.10	1.64 ± 0.13	1.59 ± 0.09
COc1ccc2c(c1)c(CC(=O)O)c(C)n2C(=O)c1ccc(Cl)cc1 [Indomethacin, reference compound]	1.49 ± 0.06	1.35 ± 0.09	1.42 ± 0.02	1.43 ± 0.08

Same assay, conditions: BN compounds 100 mg/kg, indomethacin 2.5 mg/kg; FCA study

SMILES	Body weight index, 1st DAY
Nc1c2c(nc3sc4c(c13)CCC4)CCCCC2 [BN-16, 1,2,3,6,7,8,9,10-Octahydrocyclohepta[b]cyclopenta[4,5]thieno[3,2-e]pyridine-11-amine]	157.85 ± 2.08
COc1ccc2c(c1)c(CC(=O)O)c(C)n2C(=O)c1ccc(Cl)cc1 [Indomethacin, reference compound]	157.85 ± 2.08

Same assay, conditions: termination day, FCA model; BN compounds 100 mg/kg, Indomethacin 2.5 mg/kg

SMILES	Total WBC count
Nc1c2c(nc3sc4c(c13)CCC4)CCCCC2 [BN-16, 1,2,3,6,7,8,9,10-Octahydrocyclohepta[b]cyclopenta[4,5]thieno[3,2-e]pyridine-11-amine]	17.3±1.63
COc1ccc2c(c1)c(CC(=O)O)c(C)n2C(=O)c1ccc(Cl)cc1 [Indomethacin, reference compound]	20.67±0.59

These compounds were tested on TNF-α (assay: TNF-α in rat paw tissue, FCA model (ELISA)). Details: termination day.
Assay type: in vivo
Method: as §1, §2

SMILES	% Inhibition (TNF-α)
Nc1c2c(nc3sc4c(c13)CCC4)CCCCC2 [BN-16, 1,2,3,6,7,8,9,10-Octahydrocyclohepta[b]cyclopenta[4,5]thieno[3,2-e]pyridine-11-amine]	37.42 ± 5.57%
COc1ccc2c(c1)c(CC(=O)O)c(C)n2C(=O)c1ccc(Cl)cc1 [Indomethacin, reference compound]	29.06 ± 0.06%

What follows are compounds tested on Wistar rats (assay: Cotton pellet granuloma (sub acute model)). Details: BN compounds 100 mg/kg, Indomethacin 5 mg/kg, daily for 7 days.
Assay type: in vivo, rat
Method: Wistar rats weighing between 180-220 gms were anaesthetized with ether. The skin at their back was shaved and disinfected with 70% alcohol according to D'Arcy et al., 1960). An incision was made in the lumbar region. Using a blunt forceps subcutaneous tunnel was formed and a sterilized cotton pellet was placed on both sides in scapular region. Standard 20 mg cotton pellets was weighed and sterilized for the study. Rats were grouped into 5 groups of 6 animals each. […] On 8th day rats in all groups were sacrificed with anesthetic ether. Pellets were removed and kept overnight for incubation at 37° C. Then pellets were dried at 60° C. until they reach constant weight. The wet weight of pellets was also recorded after sacrificing. The average weights of pellets of control group and other treated groups were calculated. The percent change of granuloma weight was calculated for all the test groups comparing with control group.

SMILES	% Inhibition (granuloma dry weight)	% Inhibition (granuloma wet weight)	Granuloma Dry Weight	Granuloma Wet Weight
Nc1c2c(nc3sc4c(c13)CCC4)CCCCC2 [BN-16, 1,2,3,6,7,8,9,10-Octahydrocyclohepta[b]cyclopenta[4,5]thieno[3,2-e]pyridine-11-amine]	27.70 ± 1.82 %	23.09 ± 1.59 %	84.16 ± 2.11 mg	365.08 ± 6.39 mg
COc1ccc2c(c1)c(CC(=O)O)c(C)n2C(=O)c1ccc(Cl)cc1 [Indomethacin, reference compound]	32.78 ± 1.88 %	26.93 ± 2.24 %	78.25 ± 2.19 mg	338.01 ± 10.38 mg
